Measured values as given in the kinase profiling compilation of Christmann-Franck et al. (2016).

Assays:
Details in all cases: compound 10.0 µM
[1] = target: KIT (human) (UniProt P10721)
[2] = target: ULK2 (human) (UniProt Q8IYT8)
[3] = target: MYO3B (human) (UniProt Q8WXR4)
[4] = target: FGFR1 (human) (UniProt P11362)
[5] = target: MAP3K7 (human) (UniProt O43318)
[6] = target: SRPK1 (human) (UniProt Q96SB4)
[7] = tested on: FLT3 (human), P36888 [N841I]
[8] = target: PIP5K1A (human) (UniProt Q99755)
[9] = target: EPHA5 (human) (UniProt P54756)
[10] = target: MAP2K4 (human) (UniProt P45985)
[11] = target: MAP3K12 (human) (UniProt Q12852)
[12] = target: PLK1 (human) (UniProt P53350)
[13] = target: CSNK1E (human) (UniProt P49674)
[14] = target: MAP2K2 (human) (UniProt P36507)
[15] = target: TNK2 (human) (UniProt Q07912)
[16] = tested on: CPK1 (P.falciparum)
[17] = target: STK35 (human) (UniProt Q8TDR2)
[18] = target: ACVRL1 (human) (UniProt P37023)
[19] = target: NEK2 (human) (UniProt P51955)
[20] = target: PDPK1 (human) (UniProt O15530)
[21] = tested on: LRRK2 (human), Q5S007 [G2019S]
[22] = target: PKN3 (M.tuberculosis) (UniProt Q6P5Z2)
[23] = target: PIK3CB (human) (UniProt P42338)
[24] = target: DCLK3 (human) (UniProt Q9C098)
[25] = target: MST4 (human) (UniProt Q9P289)
[26] = target: DMPK (human) (UniProt Q09013)
[27] = target: CAMK2B (human) (UniProt Q13554)
[28] = target: STK32B (human) (UniProt Q9NY57)
[29] = target: ICK (human) (UniProt Q9UPZ9)
[30] = target: SIK1 (human) (UniProt P57059)
[31] = target: BTK (human) (UniProt Q06187)
[32] = target: PRKCQ (human) (UniProt Q04759)
[33] = target: RPS6KA6 KD2 (human) (UniProt Q9UK32)
[34] = target: STK17B (human) (UniProt O94768)
[35] = target: NEK3 (human) (UniProt P51956)
[36] = target: ERN1 (human) (UniProt O75460)
[37] = target: RIPK2 (human) (UniProt O43353)
[38] = target: INSR (human) (UniProt P06213)
[39] = target: EPHA2 (human) (UniProt P29317)
[40] = target: CDK16 (human) (UniProt Q00536)
[41] = target: CDK19 (human) (UniProt Q9BWU1)
[42] = target: MERTK (human) (UniProt Q12866)
Sequence of MERTK (human) (Q12866 whole entry, looked up): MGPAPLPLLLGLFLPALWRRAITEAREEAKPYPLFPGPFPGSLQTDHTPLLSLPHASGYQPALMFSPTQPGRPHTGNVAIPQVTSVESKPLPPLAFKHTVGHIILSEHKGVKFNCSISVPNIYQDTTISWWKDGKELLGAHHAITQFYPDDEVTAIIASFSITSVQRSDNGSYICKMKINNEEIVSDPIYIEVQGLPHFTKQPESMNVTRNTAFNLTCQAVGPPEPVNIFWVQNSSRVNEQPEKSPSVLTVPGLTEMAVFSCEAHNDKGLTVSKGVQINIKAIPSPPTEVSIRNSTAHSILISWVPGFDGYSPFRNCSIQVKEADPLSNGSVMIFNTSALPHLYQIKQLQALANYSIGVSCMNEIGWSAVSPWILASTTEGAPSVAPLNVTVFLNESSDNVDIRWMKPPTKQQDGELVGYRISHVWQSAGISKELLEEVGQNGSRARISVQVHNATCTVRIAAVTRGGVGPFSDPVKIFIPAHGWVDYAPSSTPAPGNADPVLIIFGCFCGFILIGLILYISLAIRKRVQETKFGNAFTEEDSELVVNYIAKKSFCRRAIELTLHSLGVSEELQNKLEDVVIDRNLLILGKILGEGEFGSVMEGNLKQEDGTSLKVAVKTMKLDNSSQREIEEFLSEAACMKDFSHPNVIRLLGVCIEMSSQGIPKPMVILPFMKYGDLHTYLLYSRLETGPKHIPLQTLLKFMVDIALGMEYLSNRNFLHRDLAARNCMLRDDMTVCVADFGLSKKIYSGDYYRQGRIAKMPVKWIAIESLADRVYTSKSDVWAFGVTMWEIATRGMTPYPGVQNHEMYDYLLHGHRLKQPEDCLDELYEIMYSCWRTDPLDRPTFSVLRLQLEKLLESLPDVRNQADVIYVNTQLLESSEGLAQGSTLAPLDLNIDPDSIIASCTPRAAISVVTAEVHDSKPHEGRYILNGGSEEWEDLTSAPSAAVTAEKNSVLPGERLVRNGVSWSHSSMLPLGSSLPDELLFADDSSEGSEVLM

Sequence of PKN3 (M.tuberculosis) (Q6P5Z2 whole entry, looked up): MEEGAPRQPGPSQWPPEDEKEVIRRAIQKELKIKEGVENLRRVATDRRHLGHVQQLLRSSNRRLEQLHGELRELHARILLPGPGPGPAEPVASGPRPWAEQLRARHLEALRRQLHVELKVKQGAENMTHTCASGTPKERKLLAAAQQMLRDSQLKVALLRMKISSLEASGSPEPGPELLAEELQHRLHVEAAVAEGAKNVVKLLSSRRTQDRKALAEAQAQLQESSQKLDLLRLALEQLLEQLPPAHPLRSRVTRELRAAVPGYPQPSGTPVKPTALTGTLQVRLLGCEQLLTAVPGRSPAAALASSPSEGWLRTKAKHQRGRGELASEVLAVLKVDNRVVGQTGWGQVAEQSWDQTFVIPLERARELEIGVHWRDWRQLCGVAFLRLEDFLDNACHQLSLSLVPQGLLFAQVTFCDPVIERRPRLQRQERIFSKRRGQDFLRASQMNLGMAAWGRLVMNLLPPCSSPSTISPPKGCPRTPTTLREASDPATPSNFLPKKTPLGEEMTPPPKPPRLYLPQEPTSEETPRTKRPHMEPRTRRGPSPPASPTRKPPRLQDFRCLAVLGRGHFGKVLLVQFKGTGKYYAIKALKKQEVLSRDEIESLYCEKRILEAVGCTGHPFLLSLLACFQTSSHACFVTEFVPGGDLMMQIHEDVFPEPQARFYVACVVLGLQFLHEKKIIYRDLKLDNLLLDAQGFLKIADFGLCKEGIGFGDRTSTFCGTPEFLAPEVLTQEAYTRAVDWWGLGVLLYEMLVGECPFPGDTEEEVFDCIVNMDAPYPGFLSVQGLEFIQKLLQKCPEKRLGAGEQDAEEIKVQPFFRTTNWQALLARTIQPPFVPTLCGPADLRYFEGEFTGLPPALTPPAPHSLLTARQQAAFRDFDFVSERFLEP
Sequence of EPHA5 (human) (P54756 whole entry, looked up): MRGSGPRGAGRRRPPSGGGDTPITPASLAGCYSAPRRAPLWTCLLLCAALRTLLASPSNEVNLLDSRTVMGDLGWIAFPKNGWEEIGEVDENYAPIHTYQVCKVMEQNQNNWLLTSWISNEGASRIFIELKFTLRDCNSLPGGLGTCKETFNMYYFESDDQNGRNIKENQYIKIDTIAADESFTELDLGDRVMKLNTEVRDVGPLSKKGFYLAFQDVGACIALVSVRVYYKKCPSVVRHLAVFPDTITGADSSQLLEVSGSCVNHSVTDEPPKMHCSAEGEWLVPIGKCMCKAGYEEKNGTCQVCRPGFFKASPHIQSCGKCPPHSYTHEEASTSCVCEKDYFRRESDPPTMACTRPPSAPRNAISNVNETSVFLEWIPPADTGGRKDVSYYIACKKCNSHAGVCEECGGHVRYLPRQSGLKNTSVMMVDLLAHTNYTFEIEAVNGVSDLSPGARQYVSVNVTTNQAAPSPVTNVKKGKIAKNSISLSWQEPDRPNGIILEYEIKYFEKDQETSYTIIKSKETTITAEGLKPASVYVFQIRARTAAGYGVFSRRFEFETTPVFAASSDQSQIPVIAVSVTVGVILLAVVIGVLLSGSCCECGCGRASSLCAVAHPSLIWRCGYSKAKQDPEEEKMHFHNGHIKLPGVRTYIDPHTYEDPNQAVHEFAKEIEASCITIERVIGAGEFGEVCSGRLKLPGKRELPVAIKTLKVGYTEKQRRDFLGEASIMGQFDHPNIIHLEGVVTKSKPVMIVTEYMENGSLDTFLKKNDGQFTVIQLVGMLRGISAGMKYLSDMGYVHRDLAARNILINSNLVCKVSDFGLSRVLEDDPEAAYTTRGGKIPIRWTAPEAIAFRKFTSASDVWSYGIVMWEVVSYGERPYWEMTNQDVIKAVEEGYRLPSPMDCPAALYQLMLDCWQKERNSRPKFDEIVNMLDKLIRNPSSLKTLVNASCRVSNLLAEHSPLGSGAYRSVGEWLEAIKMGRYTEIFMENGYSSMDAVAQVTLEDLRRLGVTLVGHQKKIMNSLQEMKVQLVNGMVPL
Sequence of DMPK (human) (Q09013 whole entry, looked up): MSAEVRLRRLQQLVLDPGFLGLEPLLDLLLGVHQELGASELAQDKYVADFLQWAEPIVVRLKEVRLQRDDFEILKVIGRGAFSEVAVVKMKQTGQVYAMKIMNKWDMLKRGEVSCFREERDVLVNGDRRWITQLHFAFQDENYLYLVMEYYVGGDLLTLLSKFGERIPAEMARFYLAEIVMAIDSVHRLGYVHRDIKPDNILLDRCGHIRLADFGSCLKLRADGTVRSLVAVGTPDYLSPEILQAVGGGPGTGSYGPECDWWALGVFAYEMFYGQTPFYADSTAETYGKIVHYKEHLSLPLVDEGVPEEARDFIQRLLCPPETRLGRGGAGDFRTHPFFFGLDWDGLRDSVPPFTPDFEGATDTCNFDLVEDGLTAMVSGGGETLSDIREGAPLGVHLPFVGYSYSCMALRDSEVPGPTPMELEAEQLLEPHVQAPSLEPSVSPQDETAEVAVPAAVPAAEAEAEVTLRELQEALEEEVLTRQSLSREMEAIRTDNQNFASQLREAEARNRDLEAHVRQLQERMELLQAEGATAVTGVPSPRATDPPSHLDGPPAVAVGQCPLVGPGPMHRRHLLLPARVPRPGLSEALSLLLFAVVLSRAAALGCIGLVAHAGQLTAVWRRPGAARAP
Sequence of EPHA2 (human) (P29317 whole entry, looked up): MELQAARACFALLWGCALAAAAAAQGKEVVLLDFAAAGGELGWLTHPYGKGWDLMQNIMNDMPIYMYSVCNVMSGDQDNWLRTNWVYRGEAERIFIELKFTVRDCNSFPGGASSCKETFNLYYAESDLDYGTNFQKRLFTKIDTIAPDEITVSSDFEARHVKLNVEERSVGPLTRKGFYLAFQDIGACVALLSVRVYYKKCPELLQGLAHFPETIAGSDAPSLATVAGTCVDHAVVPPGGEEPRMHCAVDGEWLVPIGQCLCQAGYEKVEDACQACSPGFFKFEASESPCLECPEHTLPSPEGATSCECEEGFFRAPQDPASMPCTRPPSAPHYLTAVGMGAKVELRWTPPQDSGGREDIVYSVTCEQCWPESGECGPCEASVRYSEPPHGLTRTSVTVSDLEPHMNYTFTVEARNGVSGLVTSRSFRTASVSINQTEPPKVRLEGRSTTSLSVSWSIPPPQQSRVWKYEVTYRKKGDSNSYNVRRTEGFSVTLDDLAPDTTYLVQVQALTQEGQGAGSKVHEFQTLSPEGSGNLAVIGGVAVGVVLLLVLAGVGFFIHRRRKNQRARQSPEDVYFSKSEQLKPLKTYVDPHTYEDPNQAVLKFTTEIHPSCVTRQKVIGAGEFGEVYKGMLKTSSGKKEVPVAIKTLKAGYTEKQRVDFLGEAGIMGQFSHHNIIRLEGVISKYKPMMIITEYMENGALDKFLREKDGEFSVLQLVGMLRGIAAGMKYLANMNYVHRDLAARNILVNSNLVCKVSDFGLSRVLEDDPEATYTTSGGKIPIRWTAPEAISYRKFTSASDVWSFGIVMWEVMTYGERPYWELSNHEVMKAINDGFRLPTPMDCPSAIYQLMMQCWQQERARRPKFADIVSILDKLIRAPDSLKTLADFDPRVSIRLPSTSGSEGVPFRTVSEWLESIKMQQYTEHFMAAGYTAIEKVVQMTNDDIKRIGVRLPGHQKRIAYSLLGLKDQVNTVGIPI
Sequence of PDPK1 (human) (O15530 whole entry, looked up): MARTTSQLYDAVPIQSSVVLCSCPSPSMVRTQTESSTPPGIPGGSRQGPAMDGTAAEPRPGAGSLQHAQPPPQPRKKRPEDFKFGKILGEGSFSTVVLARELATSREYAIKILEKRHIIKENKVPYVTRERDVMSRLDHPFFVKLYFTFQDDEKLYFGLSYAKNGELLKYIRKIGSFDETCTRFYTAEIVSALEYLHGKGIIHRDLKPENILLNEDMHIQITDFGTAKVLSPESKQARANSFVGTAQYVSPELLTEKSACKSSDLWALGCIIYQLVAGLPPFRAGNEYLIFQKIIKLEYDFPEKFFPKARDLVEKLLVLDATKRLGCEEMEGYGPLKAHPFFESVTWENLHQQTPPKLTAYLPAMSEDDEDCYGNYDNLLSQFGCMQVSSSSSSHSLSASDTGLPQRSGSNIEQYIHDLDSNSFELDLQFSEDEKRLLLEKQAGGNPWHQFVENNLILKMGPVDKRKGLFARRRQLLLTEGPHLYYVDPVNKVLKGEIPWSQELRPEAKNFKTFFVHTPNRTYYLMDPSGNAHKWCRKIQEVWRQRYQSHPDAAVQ

`CNC(=O)c1cc(Oc2ccc(NC(=O)Nc3ccc(Cl)c(C(F)(F)F)c3)cc2)cc[n+]1[O-]` showed a per cent of control [1] of 0%, a per cent of control [2] of 75% and a per cent of control [3] of 17%. The per cent of control [4] was 9.7%, the per cent of control [5] was 2.9% and the per cent of control [6] was 100%. For the same compound, the per cent of control [7] was 0%, the per cent of control [8] was 100% and the per cent of control [9] was 15%. The per cent of control [10] was 60%, the per cent of control [11] was 100% and the per cent of control [12] was 100%. The per cent of control [13] was 100%, the per cent of control [14] was 84% and the per cent of control [15] was 100%. For the same compound, the per cent of control [16] was 0.15%, the per cent of control [17] was 40% and the per cent of control [18] was 96%. The per cent of control [19] was 71%, the per cent of control [20] was 94% and the per cent of control [21] was 64%. The residual activity [22] was 100%, the per cent of control [23] was 93% and the per cent of control [24] was 100%. The per cent of control [25] was 49%, the per cent of control [26] was 91% and the per cent of control [27] was 89%. It also gave a per cent of control [28] of 100%, a per cent of control [29] of 100% and a per cent of control [30] of 66%. It also gave a per cent of control [31] of 30%, a per cent of control [32] of 80% and a per cent of control [33] of 6.4%. The per cent of control [34] was 62%, the per cent of control [35] was 100% and the per cent of control [36] was 66%. It also gave a per cent of control [37] of 9.8%, a per cent of control [38] of 83% and a per cent of control [39] of 4.7%. For the same compound, the per cent of control [40] was 19%, the per cent of control [41] was 0.35% and the per cent of control [42] was 2%.

Compound `CNC(=O)c1cc(Oc2ccc(NC(=O)Nc3ccc(Cl)c(C(F)(F)F)c3)cc2)ccn1` has a per cent of control [1] of 0%, a per cent of control [2] of 94% and a per cent of control [3] of 38%. It also gave a per cent of control [4] of 3.4%, a per cent of control [5] of 2.6% and a per cent of control [6] of 100%. It also gave a per cent of control [7] of 0%, a per cent of control [8] of 100% and a per cent of control [9] of 16%. It also gave a per cent of control [10] of 85%, a per cent of control [11] of 100% and a per cent of control [12] of 100%. It also gave a per cent of control [13] of 99%, a per cent of control [14] of 88% and a per cent of control [15] of 99%. The per cent of control [16] was 0.8%, the per cent of control [17] was 7.8% and the per cent of control [18] was 100%. For the same compound, the per cent of control [19] was 90%, the per cent of control [20] was 94% and the per cent of control [21] was 62%. The residual activity [22] was 100%, the per cent of control [23] was 100% and the per cent of control [24] was 100%. The per cent of control [25] was 99%, the per cent of control [26] was 90% and the per cent of control [27] was 96%. It also gave a per cent of control [28] of 100%, a per cent of control [29] of 100% and a per cent of control [30] of 79%. It also gave a per cent of control [31] of 62%, a per cent of control [32] of 76% and a per cent of control [33] of 16%. The per cent of control [34] was 66%, the per cent of control [35] was 100% and the per cent of control [36] was 92%. It also gave a per cent of control [37] of 5.3%, a per cent of control [38] of 100% and a per cent of control [39] of 9%. It also gave a per cent of control [40] of 68%, a per cent of control [41] of 0.7% and a per cent of control [42] of 2.4%.
